From patent US20150250864A1, “ANTI-CANCER VACCINES” (Board of Regents, The University of Texas System, priority 2012, published 2015)

System: T cells from HLA A2+ normal donor
Test: IFN-γ ELISPOT, T cells stimulated by 9-mer peptide pool-pulsed homologous B cells
Assay type: cell-based, human
Excerpt: FIGS. 12A-B. Identification of HLA-A2 T-cell specific peptides using anti-human IFN-γ ELISPOT with T cells from one HLA A2^+ normal donor. (FIG. 12A) T cells, stimulated by peptide pool-pulsed homologous B cells three (3rd T cells) or four (4th T cells) times were reactive with two pools from a HERV-K HLA A2^+9-mer peptide library (pool #1-11 and pool #12-22). NP is no peptide control. (FIG. 12B) Photographs of actual plates for FIG. 12A.
FIGS. 13A-B. Identification of HLA-A2 T cell specific epitopes using anti-human IFN-γ ELISPOT. T cells obtained from PBMC stimulated by peptide pool-pulsed homologous B cells three (3rd T cells) or four (4th T cells) times, were reactive with individual peptides. (FIG. 13A) Image of ELISPOT. (FIG. 13B) The code of peptides evaluated in ELISPOT assays.
FIGS. 14A-C. Summary of number of ELISPOTs from each individual peptide. Numbers of spots detected (pool 1-11, pool 12-22, and pool 23-33) in ELISPOTS with a single peptide are shown. NP contains no peptide (as control). (FIG. 14A) Summary of number of ELISPOTs from each individual peptide including #1, #2, #3, #5, #6, #7, #8, and #9, and peptide pool #1 to #11. (FIG. 14B) Summary of number of ELISPOTs from each individual peptide including #12, #13, #14, #15, #17, #18, #19, #20, #22 and peptide pool #12 to #22. (FIG. 14C) Summary of number of ELISPOTs from each individual peptide including #23, #24, #25, #26, #27, #28, #30, #31, #32, #33, and peptide pool #23 to #33. 4th T cells indicated the T cells had been stimulated with peptide pool 4 times and 3rd T cells indicated the T cells had been stimulated with peptide pool 3 times.
The inventor used epitope mapping to identify responses to HERV-K peptides in breast cancer patients. They chemically synthesized a HERV-K env nine amino acid (9mer) peptide library (33 HLA A2 restricted peptides) and overlapping 15mer peptide library (144 peptides). Preliminary research has identified two pools from the HERV-K env 9mer peptide library that contain potential CD8+ epitopes, using interferon gamma (IFN-γ) enzyme-linked immunosorbent spot (ELISPOT) assay with T cells from one HLA A2^+ normal donor which was stimulated with the 9mer peptide pool-pulsed homologous dendritic cells (DCs).
HLA-2+ patients were identified by flow cytometry using anti-A2 antibody. Activated B cells were cultured from PBMCs stimulated with irradiated 3T3-CD40L-expressing fibroblasts. Normal donor CD8+ T-cell lines were obtained from PBMCs stimulated with autologous activated B cells pulsed with peptide pools (peptides are in 3 pools: #1-11, #12-22, and #23-33); the stimulation was repeated for 3-4 cycles. HERV-K specific T cells generated from normal donor lines were tested for peptide reactivity using IFN-γ ELISPOT assays (FIGS. 12A-B).

Sequence: IINLILILV [HERVK-18]
- CD8 T epitope for HLA-A2 donors: may be CD8 T epitopes
- IFN-γ ELISPOT spots with individual peptide (T cell stimulated 3 times with peptide pool #12 to 22): numerous spots
- IFN-γ ELISPOT spots with individual peptide (T cell stimulated 4 times with peptide pool #12 to 22): numerous spots

Sequence: YMLVVGNIV [HERVK-3]
- CD8 T epitope for HLA-A2 donors: may be CD8 T epitopes
- IFN-γ ELISPOT spots with individual peptide (T cell stimulated 4 times with peptide pool #1 to 11): numerous spots
